Laboratory results taken from paper PMC5218480 (PLoS ONE, 2017).

Tested on: MV-4-11 cells
Test: Gene expression microarray analysis (Affymetrix PrimeView) and GSEA
Assay type: cell-based, human
Design: RFU PODN (11730768_x_at) / Fold change /veh PODN (11730768_x_at) / RFU LINC00158 (11744669_a_at) / Fold change /veh LINC00158 (11744669_a_at) / RFU DUSP10 (11751237_a_at) / Fold change /veh DUSP10 (11751237_a_at) / RFU ID3 (11757404_x_at) / Fold change /veh ID3 (11757404_x_at) / RFU PLEKHG5 (11737974_s_at) / Fold change /veh PLEKHG5 (11737974_s_at) / RFU LRRC4B (11730491_at) / Fold change /veh LRRC4B (11730491_at) / RFU GIMAP4 (11747438_a_at) / Fold change /veh GIMAP4 (11747438_a_at) / RFU KRT8 (11758183_x_at) / Fold change /veh KRT8 (11758183_x_at) / RFU CNN1 (11734310_a_at) / Fold change /veh CNN1 (11734310_a_at) / RFU VPS37D (11726825_at) / Fold change /veh VPS37D (11726825_at) / RFU C10orf10 (11716522_x_at) / Fold change /veh C10orf10 (11716522_x_at) / RFU KIR2DL2 /// KIR2DL4 /// KIR2DL5A /// KIR2DL5B /// KIR2DS1 /// KIR2DS2 /// KIR2DS3 /// KIR2DS4 /// KIR3DL3 /// KIR3DL3 /// KIR3DS1 (11738374_at) / Fold change /veh KIR2DL2 /// KIR2DL4 /// KIR2DL5A /// KIR2DL5B /// KIR2DS1 /// KIR2DS2 /// KIR2DS3 /// KIR2DS4 /// KIR3DL3 /// KIR3DL3 /// KIR3DS1 (11738374_at) / RFU C1QL1 (11718748_at) / Fold change /veh C1QL1 (11718748_at) / RFU TMPRSS4 (11747572_a_at) / Fold change /veh TMPRSS4 (11747572_a_at) / RFU HAMP (11756126_x_at) / Fold change /veh HAMP (11756126_x_at) / RFU RNFT2 (11725882_a_at) / Fold change /veh RNFT2 (11725882_a_at) / RFU NR4A2 (11747474_a_at) / Fold change /veh NR4A2 (11747474_a_at) / RFU ABCC12 (11746883_a_at) / Fold change /veh ABCC12 (11746883_a_at) / RFU TMEM136 (11760407_x_at) / Fold change /veh TMEM136 (11760407_x_at) / RFU CLDN22 /// WWC2 (11732394_at) / Fold change /veh CLDN22 /// WWC2 (11732394_at) / RFU HLA-DPB1 (11760878_x_at) / Fold change /veh HLA-DPB1 (11760878_x_at) / RFU SPINT1 (11716480_a_at) / Fold change /veh SPINT1 (11716480_a_at) / RFU GAP43 (11754022_s_at) / Fold change /veh GAP43 (11754022_s_at) / RFU A4GNT (11735810_at) / Fold change /veh A4GNT (11735810_at) / RFU PRB3 (11715151_x_at) / Fold change /veh PRB3 (11715151_x_at) / RFU TUBB4B (11761932_at) / Fold change /veh TUBB4B (11761932_at) / RFU CAPN14 (11732068_a_at) / Fold change /veh CAPN14 (11732068_a_at) / RFU TMCC2 (11721928_a_at) / Fold change /veh TMCC2 (11721928_a_at) / RFU IRGQ (11745062_a_at) / Fold change /veh IRGQ (11745062_a_at) / RFU FAM174B (11720279_a_at) / Fold change /veh FAM174B (11720279_a_at) / RFU TMPRSS4 (11748680_a_at) / Fold change /veh TMPRSS4 (11748680_a_at) / RFU FAM212B (11763350_a_at) / Fold change /veh FAM212B (11763350_a_at) / RFU PLEKHG5 (11743358_a_at) / Fold change /veh PLEKHG5 (11743358_a_at) / RFU ZSCAN30 (11745921_a_at) / Fold change /veh ZSCAN30 (11745921_a_at) / RFU CMKLR1 (11741424_a_at) / Fold change /veh CMKLR1 (11741424_a_at) / RFU LOC101060620 /// MAPK8IP1 (11723275_at) / Fold change /veh LOC101060620 /// MAPK8IP1 (11723275_at) / RFU SPTSSB (11747773_x_at) / Fold change /veh SPTSSB (11747773_x_at) / RFU PRSS12 (11739890_at) / Fold change /veh PRSS12 (11739890_at) / RFU BIN1 (11741810_x_at) / Fold change /veh BIN1 (11741810_x_at) / RFU WNT11 (11732464_a_at) / Fold change /veh WNT11 (11732464_a_at) / RFU C10orf10 (11716521_a_at) / Fold change /veh C10orf10 (11716521_a_at) / RFU C5orf56 (11738089_at) / Fold change /veh C5orf56 (11738089_at) / RFU CYB561 (11721691_x_at) / Fold change /veh CYB561 (11721691_x_at) / RFU ANKRD19P (11752326_a_at) / Fold change /veh ANKRD19P (11752326_a_at) / RFU OR2T12 /// OR2T33 /// OR2T8 (11738714_s_at) / Fold change /veh OR2T12 /// OR2T33 /// OR2T8 (11738714_s_at) / RFU VCAN (11748164_a_at) / Fold change /veh VCAN (11748164_a_at) / RFU JSRP1 (11732532_at) / Fold change /veh JSRP1 (11732532_at) / RFU KRTAP10-11 (11738290_x_at) / Fold change /veh KRTAP10-11 (11738290_x_at) / RFU MYO3A (11730013_a_at) / Fold change /veh MYO3A (11730013_a_at) / RFU EBF3 (11725865_a_at) / Fold change /veh EBF3 (11725865_a_at) / RFU CAMK2N1 (11719241_x_at) / Fold change /veh CAMK2N1 (11719241_x_at) / RFU C5orf56 (11738088_a_at) / Fold change /veh C5orf56 (11738088_a_at) / RFU OLFML3 (11715873_a_at) / Fold change /veh OLFML3 (11715873_a_at) / RFU LOC100653217 /// NTM (11731650_a_at) / Fold change /veh LOC100653217 /// NTM (11731650_a_at) / RFU MAPK11 (11762145_a_at) / Fold change /veh MAPK11 (11762145_a_at) / RFU FIZ1 (11724087_x_at) / Fold change /veh FIZ1 (11724087_x_at) / RFU OASL (11726364_x_at) / Fold change /veh OASL (11726364_x_at) / RFU SOX15 (11748057_x_at) / Fold change /veh SOX15 (11748057_x_at) / RFU CD79A (11719716_a_at) / Fold change /veh CD79A (11719716_a_at) / RFU HIST1H1D (11736915_at) / Fold change /veh HIST1H1D (11736915_at) / RFU CASKIN2 (11723855_a_at) / Fold change /veh CASKIN2 (11723855_a_at) / RFU LOC730098 (11760151_x_at) / Fold change /veh LOC730098 (11760151_x_at) / RFU OR4N2 (11742367_at) / Fold change /veh OR4N2 (11742367_at) / RFU PRRT2 (11749266_a_at) / Fold change /veh PRRT2 (11749266_a_at) / RFU SNX32 (11753110_a_at) / Fold change /veh SNX32 (11753110_a_at) / RFU CDHR5 (11726645_a_at) / Fold change /veh CDHR5 (11726645_a_at) / RFU RCAN1 (11760418_a_at) / Fold change /veh RCAN1 (11760418_a_at) / RFU FAM167A (11723789_a_at) / Fold change /veh FAM167A (11723789_a_at) / RFU FAM26E (11764081_at) / Fold change /veh FAM26E (11764081_at) / RFU ISYNA1 (11749810_s_at) / Fold change /veh ISYNA1 (11749810_s_at) / RFU ACY1 (11761880_at) / Fold change /veh ACY1 (11761880_at) / RFU 11764098_at / Fold change /veh 11764098_at / RFU SAMD14 (11745864_x_at) / Fold change /veh SAMD14 (11745864_x_at) / RFU NPB (11741838_a_at) / Fold change /veh NPB (11741838_a_at) / RFU TMPRSS6 (11731388_a_at) / Fold change /veh TMPRSS6 (11731388_a_at) / RFU KRTAP10-2 (11738614_at) / Fold change /veh KRTAP10-2 (11738614_at) / RFU ARHGAP8 /// PRR5-ARHGAP8 (11727945_x_at) / Fold change /veh ARHGAP8 /// PRR5-ARHGAP8 (11727945_x_at) / RFU KRTAP5-7 /// NADSYN1 (11734609_at) / Fold change /veh KRTAP5-7 /// NADSYN1 (11734609_at) / RFU RASL12 (11751679_a_at) / Fold change /veh RASL12 (11751679_a_at) / RFU CDKN2B (11736163_a_at) / Fold change /veh CDKN2B (11736163_a_at) / RFU PRF1 (11729649_at) / Fold change /veh PRF1 (11729649_at) / RFU, ZNF638 /// ZNF638-IT1 / Fold change vs veh, ZNF638 /// ZNF638-IT1 / RFU, PANK3 / Fold change vs veh, PANK3 / RFU, SH3YL1 / Fold change vs veh, SH3YL1 / RFU, ZEB2 / Fold change vs veh, ZEB2 / RFU, NRIP1 / Fold change vs veh, NRIP1 / RFU, PTTG1IP / Fold change vs veh, PTTG1IP / RFU, CAPN2 / Fold change vs veh, CAPN2 / RFU, MED14 / Fold change vs veh, MED14 / RFU, SNORA58 / Fold change vs veh, SNORA58 / RFU, C1orf63 / Fold change vs veh, C1orf63 / RFU, LRRFIP1 / Fold change vs veh, LRRFIP1 / RFU, NDUFAF7 / Fold change vs veh, NDUFAF7 / RFU, SLC12A2 / Fold change vs veh, SLC12A2 / RFU, IBTK / Fold change vs veh, IBTK / RFU, ESF1 / Fold change vs veh, ESF1 / Fold change vs veh, TMEM50B / RFU, TAOK1 / Fold change vs veh, TAOK1 / RFU, ACBD3 / Fold change vs veh, ACBD3 / RFU, TMA16 / Fold change vs veh, TMA16 / RFU, RWDD3 / Fold change vs veh, RWDD3 / RFU, BCAT1 / Fold change vs veh, BCAT1 / RFU, EDEM3 / Fold change vs veh, EDEM3 / RFU, TMEM33 / Fold change vs veh, TMEM33 / RFU, WDR75 / Fold change vs veh, WDR75 / RFU, AHCTF1 / Fold change vs veh, AHCTF1 / RFU, TFRC / Fold change vs veh, TFRC / RFU, ZDHHC17 / Fold change vs veh, ZDHHC17 / RFU, NOM1 / Fold change vs veh, NOM1 / RFU, ARL8B / Fold change vs veh, ARL8B / RFU, ZBTB11 / Fold change vs veh, ZBTB11 / RFU, TAMM41 / Fold change vs veh, TAMM41 / RFU, KIAA1704 /// LOC100996395 / Fold change vs veh, KIAA1704 /// LOC100996395 / RFU, ING1 / Fold change vs veh, ING1 / RFU, TRMT61B / Fold change vs veh, TRMT61B / RFU, FUBP3 / Fold change vs veh, FUBP3 / RFU, TP53 / Fold change vs veh, TP53 / RFU, TNKS2 / Fold change vs veh, TNKS2 / RFU, ZFP14 / Fold change vs veh, ZFP14 / RFU, ACTR2 / Fold change vs veh, ACTR2 / RFU, PPP3R1 / Fold change vs veh, PPP3R1 / RFU, PIK3R1 / Fold change vs veh, PIK3R1 / RFU, HNRNPA1 / Fold change vs veh, HNRNPA1 / RFU, RNF170 / Fold change vs veh, RNF170 / RFU, ZNF28 / Fold change vs veh, ZNF28 / RFU, RNGTT / Fold change vs veh, RNGTT / RFU, OGT / Fold change vs veh, OGT / RFU, BRD1 / Fold change vs veh, BRD1 / RFU, MARS / Fold change vs veh, MARS / RFU, ZNF655 / Fold change vs veh, ZNF655 / RFU, FAHD1 / Fold change vs veh, FAHD1 / RFU, BDP1 / Fold change vs veh, BDP1 / RFU, LRRCC1 / Fold change vs veh, LRRCC1 / RFU, ARID1A / Fold change vs veh, ARID1A / RFU, ZNF146 / Fold change vs veh, ZNF146 / RFU, ZNF330 / Fold change vs veh, ZNF330 / RFU, GPN3 / Fold change vs veh, GPN3 / RFU, C9orf123 / Fold change vs veh, C9orf123 / RFU, N4BP2L2 / Fold change vs veh, N4BP2L2 / RFU, ARFIP1 / Fold change vs veh, ARFIP1 / RFU, FAM179B / Fold change vs veh, FAM179B / RFU, BCL10 / Fold change vs veh, BCL10 / RFU, UHRF1BP1L / Fold change vs veh, UHRF1BP1L / RFU, BET1 / Fold change vs veh, BET1 / RFU, CNOT2 / Fold change vs veh, CNOT2 / RFU, ZNF268 / Fold change vs veh, ZNF268 / Fold change vs veh, ZNF507 / RFU, DGCR2 / Fold change vs veh, DGCR2 / RFU, WDSUB1 / Fold change vs veh, WDSUB1 / Fold change vs veh, HSP90B1 /// MIR3652 / RFU, ADSS / Fold change vs veh, ADSS / RFU, GK / Fold change vs veh, GK / RFU, ZNF148 / Fold change vs veh, ZNF148 / RFU, TAF9 / Fold change vs veh, TAF9 / RFU, SLC1A5 / Fold change vs veh, SLC1A5 / RFU, SLMO2 / Fold change vs veh, SLMO2 / RFU, ABCC4 / Fold change vs veh, ABCC4 / RFU, LOC101060439 /// RAP1B / Fold change vs veh, LOC101060439 /// RAP1B / RFU, RFX7 / Fold change vs veh, RFX7 / RFU, GTPBP10 / Fold change vs veh, GTPBP10 / RFU, CNEP1R1 / Fold change vs veh, CNEP1R1 / RFU, BIVM-ERCC5 /// ERCC5 / Fold change vs veh, BIVM-ERCC5 /// ERCC5 / RFU, ILF3 / Fold change vs veh, ILF3 / RFU 11762660_at / Fold change /veh 11762660_at / RFU VCAN (11757783_s_at) / Fold change /veh VCAN (11757783_s_at) / RFU DDX43 (11728927_at) / Fold change /veh DDX43 (11728927_at) / RFU KRT8 (11758188_x_at) / Fold change /veh KRT8 (11758188_x_at) / RFU NKD1 (11759106_at) / Fold change /veh NKD1 (11759106_at) / RFU SRD5A1 (11742802_a_at) / Fold change /veh SRD5A1 (11742802_a_at) / RFU TPSAB1 /// TPSB2 (11721975_s_at) / Fold change /veh TPSAB1 /// TPSB2 (11721975_s_at) / RFU GSTM3 (11746129_a_at) / Fold change /veh GSTM3 (11746129_a_at) / RFU IL23R (11737362_x_at) / Fold change /veh IL23R (11737362_x_at) / RFU TMEM51 (11727254_a_at) / Fold change /veh TMEM51 (11727254_a_at) / RFU PIWIL2 (11732686_x_at) / Fold change /veh PIWIL2 (11732686_x_at) / RFU ORM1 (11744905_x_at) / Fold change /veh ORM1 (11744905_x_at) / RFU CCDC152 (11743942_at) / Fold change /veh CCDC152 (11743942_at) / RFU ECM1 (11717891_a_at) / Fold change /veh ECM1 (11717891_a_at) / RFU IL23R (11748794_a_at) / Fold change /veh IL23R (11748794_a_at) / RFU TNFAIP8L3 (11732012_x_at) / Fold change /veh TNFAIP8L3 (11732012_x_at) / RFU MBOAT4 (11741988_at) / Fold change /veh MBOAT4 (11741988_at) / RFU 11764193_at / Fold change /veh 11764193_at / RFU TMEM53 (11763286_at) / Fold change /veh TMEM53 (11763286_at) / RFU MAGEB2 (11727129_at) / Fold change /veh MAGEB2 (11727129_at) / RFU TMEM200A (11744735_a_at) / Fold change /veh TMEM200A (11744735_a_at) / RFU CCDC152 (11751479_a_at) / Fold change /veh CCDC152 (11751479_a_at) / RFU FAM211A (11726209_a_at) / Fold change /veh FAM211A (11726209_a_at) / RFU RGS16 (11746705_a_at) / Fold change /veh RGS16 (11746705_a_at) / RFU VCAN (11755009_s_at) / Fold change /veh VCAN (11755009_s_at) / RFU RHOB (11743442_s_at) / Fold change /veh RHOB (11743442_s_at) / RFU RGS16 (11720943_a_at) / Fold change /veh RGS16 (11720943_a_at) / RFU RGS16 (11720944_at) / Fold change /veh RGS16 (11720944_at) / RFU, VPS4B / Fold change vs veh, VPS4B / RFU, CREB1 / Fold change vs veh, CREB1 / RFU, DNAJC13 / Fold change vs veh, DNAJC13 / RFU, GNAQ / Fold change vs veh, GNAQ / RFU, CDK5R1 / Fold change vs veh, CDK5R1 / RFU, ZRANB3 / Fold change vs veh, ZRANB3 / RFU, CUL4A / Fold change vs veh, CUL4A / RFU, CCNY / Fold change vs veh, CCNY / RFU, UFL1 / Fold change vs veh, UFL1 / RFU, COG3 / Fold change vs veh, COG3 / RFU, DIAPH2 / Fold change vs veh, DIAPH2 / RFU, SKA2 / Fold change vs veh, SKA2 / RFU, AFF3 / Fold change vs veh, AFF3 / RFU, LMF1 / Fold change vs veh, LMF1 / RFU, IPO11 / Fold change vs veh, IPO11 / RFU, DFFB / Fold change vs veh, DFFB / RFU, FOXP1 / Fold change vs veh, FOXP1 / RFU, CARD8 / Fold change vs veh, CARD8 / RFU, STRN3 / Fold change vs veh, STRN3 / RFU, ADK / Fold change vs veh, ADK / RFU, RASSF2 / Fold change vs veh, RASSF2 / RFU, WIPF1 / Fold change vs veh, WIPF1 / RFU, LARP1B / Fold change vs veh, LARP1B / RFU, RASA1 / Fold change vs veh, RASA1 / RFU, RB1 / Fold change vs veh, RB1 / RFU, PPFIA1 / Fold change vs veh, PPFIA1 / RFU, MAT2A / Fold change vs veh, MAT2A / RFU, CCT5 / Fold change vs veh, CCT5 / RFU, WDR92 / Fold change vs veh, WDR92 / RFU, CUX1 / Fold change vs veh, CUX1 / RFU, TTC7A / Fold change vs veh, TTC7A / RFU, TMEM135 / Fold change vs veh, TMEM135 / RFU, DEPTOR / Fold change vs veh, DEPTOR / RFU, CPM / Fold change vs veh, CPM / RFU, DNAJB6 / Fold change vs veh, DNAJB6 / RFU, CACNA2D3 / Fold change vs veh, CACNA2D3 / RFU, DTX4 / Fold change vs veh, DTX4 / RFU, TFCP2 / Fold change vs veh, TFCP2 / RFU, GMCL1 /// GMCL1P1 / Fold change vs veh, GMCL1 /// GMCL1P1 / RFU, AEBP2 / Fold change vs veh, AEBP2 / RFU, SNHG1 /// SNORD22 /// SNORD25 /// SNORD26 /// SNORD27 /// SNORD28 /// SNORD29 /// SNORD31 / Fold change vs veh, SNHG1 /// SNORD22 /// SNORD25 /// SNORD26 /// SNORD27 /// SNORD28 /// SNORD29 /// SNORD31 / Fold change (Aza/veh), C12orf56 (ProbeSet 11735607_a_at) / Fold change (ACY-1035/veh), C12orf56 (ProbeSet 11735607_a_at) / Fold change (Aza/veh), FGFR1OP (ProbeSet 11751329_s_at) / Fold change (ACY-1035/veh), FGFR1OP (ProbeSet 11751329_s_at) / Fold change (Aza/veh), VPS36 (ProbeSet 11739960_a_at) / Fold change (ACY-1035/veh), VPS36 (ProbeSet 11739960_a_at) / RFU SYPL1 (11715823_x_at) / Fold change /veh SYPL1 (11715823_x_at) / RFU IGFBP7 (11715501_s_at) / Fold change /veh IGFBP7 (11715501_s_at) / RFU REEP3 (11722064_at) / Fold change /veh REEP3 (11722064_at) / RFU IGLL1 (11728026_x_at) / Fold change /veh IGLL1 (11728026_x_at): dose or concentration left out as unconfirmed
Conditions: ProbeSet 11716844_s_at; LIST D

Nc1ccc(-c2cccs2)cc1NC(=O)c1ccc2c(c1)cc(C1CC1)n2CCN1CCOCC1 [ACY-1035]
RFU, DNAJC13: 129.69 RFU
